# In ChEMBL document CHEMBL1139726, “Identification of novel inhibitors of UDP-Glc 4'-epimerase, a validated drug target for african sleeping sickness” (Bioorg Med Chem Lett, 2006):
# Key:
# Trypanosoma brucei [1] = assay: Inhibition of Trypanosoma brucei GalE at 50 uM
# UDP-glucose 4-epimerase = target: T1, UDP-glucose 4-epimerase (Homo sapiens, UniProt Q14376); assay: Inhibition of human GalE by HPAEC assay
# T1 sequence (Q14376 whole entry): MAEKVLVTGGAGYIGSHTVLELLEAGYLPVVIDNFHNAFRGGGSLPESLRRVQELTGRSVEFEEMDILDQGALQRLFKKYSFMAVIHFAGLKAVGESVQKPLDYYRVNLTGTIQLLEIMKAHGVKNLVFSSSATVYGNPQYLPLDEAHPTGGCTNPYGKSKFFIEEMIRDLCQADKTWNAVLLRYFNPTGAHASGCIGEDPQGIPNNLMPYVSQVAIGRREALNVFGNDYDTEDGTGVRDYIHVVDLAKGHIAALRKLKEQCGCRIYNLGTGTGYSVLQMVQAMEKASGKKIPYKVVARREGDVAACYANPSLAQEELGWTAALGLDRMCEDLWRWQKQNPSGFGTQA
# [2] = Inhibition of Trypanosoma brucei GalE by HPAEC assay
# Trypanosoma brucei [3] = assay: Cytotoxicity against Trypanosoma brucei by Alamar blue assay; assay type: organism-based
# CHO-K1 = assay: Cytotoxicity against CHO-K1 cells by Alamar blue assay; assay type: cell-based; details: Cricetulus griseus
# [4] = Inhibition of Trypanosoma brucei GalE after 1 hr by HPAEC assay
Compound,inhibition (Trypanosoma brucei [1]) [%],IC50 (UDP-glucose 4-epimerase) [µM],IC50 [2] [µM],EC50 (Trypanosoma brucei [3]) [nM],EC50 (CHO-K1) [µM],IC50 [4] [µM]
CC/C(=C(/CC)c1ccc(O)cc1)c1ccc(O)cc1 [DIETHYLSTILBESTROL],> 75,75,17,2800,8.5,
O=c1c2ccccc2[se]n1-c1ccccc1 [EBSELEN],> 75,0.014,0.62,4100,6.1,
C=C(CC)C(=O)c1ccc(OCC(=O)O)c(Cl)c1Cl [ETHACRYNIC ACID],> 75,14,3.1,3300,56,
Clc1cc(Cl)c(OCC#CI)cc1Cl [HALOPROGIN],> 75,0.5,,300,0.6,> 100
O=C(NCCSSCCNC(=O)/C(Cc1ccc(O)c(Br)c1)=N/O)/C(Cc1ccc(O)c(Br)c1)=N/O [PSAMMAPLIN A],> 75,3.6,15,2600,0.9,
